From PMC9243654 (Frontiers in Nutrition, 2022)
Where two headings read alike, the source gives them in different places. Each block holds one molecule with its values, some of them ahead of it.

Key:
[1] = in vitro; conditions: for PAMPA-BBB log Pe (cm s−1): pH 7.4
Procedure: The PAMPA-BBB assay was conducted according to the methodology followed by Di et al., with some modifications as described below ([15]). First, the BBB solution was prepared by dissolving 8 mg of PBL and 4 mg of cholesterol in 600 μl of n-dodecane. The initial donor solution was prepared by mixing 1 ml of extract (10 mg ml^−1 in EtOH) with 1 ml of buffer (PBS, pH = 7.4, 10 mM). The filter membrane of the donor plate was carefully coated with 5 μl of BBB solution. The acceptor plate was filled with 350 μl of buffer, and the donor plate was carefully assembled over the acceptor plate like a “sandwich.” Finally, the donor plate was filled with 350 μl of donor solution, covered, and incubated for 4 h at 37°C in the dark. After incubation time, 300 μl of the solution was taken from both plates, transferred to separate vials, and dried in the SpeedVac system at 40°C and 13 mbar pressure. Dried acceptor and donor solution were dissolved in 50 μl of pure EtOH before subjecting to UHPLC-Q-TOF-MS analysis. Permeability across in vitro BBB of the bioactive compound was measured according to Equation (1) ([25]), with some modifications in concentration rates.
(1) Pe=-ln[1-CA(t)/Ce]/A^*(1/VD+1/VA)^*t
Cequilibrium was calculated according to the following equation ([2]):
(2) Cequilibrium=[CD(t)*VD+CA(t)*VA]/(VD+VA)

[2] = ref PubChem database, cited from earlier work
[3] = PAMPA, pH 7.4, PAMPA-BBB log Pe (cm s−1), compound within RSFE extract, 4 h, 37°C, PBS pH 7.4
[4] = compounds of RSFE extract, octanol-water partition coefficient
[5] = compound within LPLE (Nothofagus pumilio, lenga PLE extract), N.D = not detected in acceptor
[6] = compounds identified in LPLE extract
[7] = PAMPA, pH 7.4, PAMPA-BBB log Pe (cm s−1)
[8] = PAMPA, pH 7.4, PAMPA-BBB log Pe, compound within LPLE (Nothofagus pumilio, lenga PLE extract), N.D = not detected in acceptor

Compound: C[C@H]1O[C@H](O[C@H]2CC[C@]3(C=O)[C@H]4CC[C@]5(C)[C@@H](c6ccc(=O)oc6)CC[C@]5(O)[C@@H]4CC[C@]3(O)C2)[C@H](O)[C@@H](O)[C@@H]1O [Kalanchoside A]
- Cross BBB potential ([1]; compound within KD extract): -
- Log P ([2]; compounds of KD extract): −0.1

Compound: CC(=O)O[C@H]1C[C@H](C)O[C@@H](O[C@H]2CC[C@]3(C=O)[C@H]4[C@H](O)C(=O)[C@]5(C)[C@@H](c6ccc(=O)oc6)CC[C@]5(O)[C@@H]4CC[C@]3(O)C2)[C@H]1O [Kalantuboside A]
- Cross BBB potential ([1]; compound within KD extract): -
- Log P ([2]; compounds of KD extract): 7.5

Compound: COc1ccc(-c2cc(=O)c3c(O)c(O)c(OC)cc3o2)cc1 [Ladanein]
- Papp at 4 h [1, 3]: 141 ×10⁻⁶ cm/s
- Cross BBB potential ([1]; compound within RSFE extract): +++ (log Pe > −4.5)
- Log P [2, 4]: 2.0

Compound: CC1(C)C[C@@H]2C3=CC[C@@H]4[C@@]5(C)CC[C@H](O)[C@@](C)(C=O)C5CC[C@@]4(C)[C@]3(C)CC[C@@]2(C(=O)O)C[C@@H]1O (stereo partly shown) [Lucyin A]
- Cross BBB potential ([1]; PAMPA): ++
- PAMPA-BBB log Pe [1, 5]: −4.74 cm s−1
- Log P [2, 6]: 5.3
- Log P ([2]; compounds of ASFE extract): 5.3

Compound: COC(=O)[C@]12CCCC(C)(C)[C@@H]1CCc1cc(C(C)C)c(O)c(O)c12 [Methyl carnosate]
- Cross BBB potential ([1]; PAMPA): ++
- Papp at 4 h [1, 7]: 5.5 ×10⁻⁶ cm/s
- Log P [2, 4]: 5.2

Compound: C=C1CC[C@]2(C(=O)O)CC[C@]3(C)C(=CC[C@@H]4[C@@]5(C)CC[C@H](O)C(C)(C)[C@@H]5CC[C@]43C)[C@@H]2[C@H]1C [Micromeric acid]
- Cross BBB potential ([1]; compound within RSFE extract): -
- Log P [2, 4]: 6.5

Compound: COc1c(O)cc2oc(-c3ccc(O)c(O)c3)c(O)c(=O)c2c1O [Patuletin]
- Cross BBB potential ([1]; compound within KD extract): -
- Log P ([2]; compounds of KD extract): 2.1

Compound: O=Cc1ccc(O)c(O)c1 [Protocatechuic aldehyde]
- PAMPA-BBB log Pe (cm s−1) ([1]; PAMPA): −5.75 cm s−1
- PAMPA-BBB log Pe [1, 5]: −5.13 cm s−1
- Log P [2, 6]: 1.1
- Log P ([2]; compounds of ASFE extract): 1.1

Compound: Oc1cccc(O)c1O [Pyrogallol]
- Cross BBB potential ([1]; PAMPA): -
- Log P [2, 6]: 0.5

Compound: O=c1c(O)c(-c2ccc(O)c(O)c2)oc2cc(O)cc(O)c12 [Quercetin, reference compound]
- Papp at 4 h ([1]; PAMPA, pH 7.4, LogPe, permeability of BBB to quercetin, present study): 0.0955 ×10⁻⁶ cm/s
- Papp at 4 h [1, 8]: 0.0245 ×10⁻⁶ cm/s
- Log P [2, 6]: 1.5
- Log P ([2]; compounds of ASFE extract): 1.5
- Log P ([2]; compounds of KD extract): 1.5

Compound: O=C(O)[C@]1(O)C[C@@H](O)[C@@H](O)[C@H](O)C1 [Quinic acid]
- Cross BBB potential ([1]; PAMPA): -
- Papp at 4 h [1, 3]: 6.03 ×10⁻⁶ cm/s
- Papp at 4 h ([1]; PAMPA, pH 7.4, PAMPA-BBB log Pe (cm s−1), compound within T33 extract, 4 h, 37°C, PBS pH 7.4): 3.63 ×10⁻⁶ cm/s
- Log P ([2]; compounds of T33 extract): −2.4

Compound: CC(C)c1cc2c(c(O)c1O)[C@@]13CCCC(C)(C)[C@@H]1[C@H](OC3=O)[C@H]2O [Rosmanol]
- Papp at 4 h [1, 3]: 145 ×10⁻⁶ cm/s
- Cross BBB potential ([1]; compound within RSFE extract): +++ (log Pe > −4.5)
- Log P [2, 4]: 3.4

The next lines start with results.

- Cross BBB potential ([1]; compound within KD extract): -
Compound: O=c1c(-c2ccc(O)cc2)coc2c([C@@H]3O[C@H](CO)[C@@H](O)[C@H](O)[C@H]3O)c(O)c([C@@H]3O[C@H](CO)[C@@H](O)[C@H](O)[C@H]3O)c(O)c12 [Paniculatin]
- Log P ([2]; compounds of KD extract): −2.3

- Cross BBB potential ([1]; PAMPA): ++
- PAMPA-BBB log Pe (cm s−1) ([1]; PAMPA, 4 h): −4.51 cm s−1
Compound: CC(=O)OC(C)(C)[C@@H]1CC[C@@]2(C)CO[C@]3(C)C=CO[C@]23C1 [Phytuberin]
- Log P ([2]; compounds of T33 extract): 2.3

- Cross BBB potential ([1]; compound within LPLE (Nothofagus pumilio, lenga PLE extract), classes based on Könczöl et al.): -
Compound: OC[C@H]1O[C@@H](Oc2cc(O)cc(/C=C/c3ccc(O)cc3)c2)[C@H](O)[C@@H](O)[C@@H]1O [Piceid]
- Log P [2, 6]: 1.7
- Log P ([2]; compounds of ASFE extract): 1.7

- Cross BBB potential ([1]; PAMPA): +++
- PAMPA-BBB log Pe (cm s−1) ([1]; PAMPA, 4 h): −3.92 cm s−1
- Papp at 4 h [1, 7]: 148 ×10⁻⁶ cm/s
- Papp at 4 h ([1]; PAMPA, pH 7.4, PAMPA-BBB log Pe (cm s−1), compound within KD extract, 4 h, 37°C, PBS pH 7.4): 105 ×10⁻⁶ cm/s
- Papp at 4 h [1, 8]: 138 ×10⁻⁶ cm/s
Compound: O=C(O)c1ccc(O)c(O)c1 [Protocatechuic acid]
- Log P [2, 6]: 1.1
- Log P ([2]; compounds of ASFE extract): 1.1
- Log P ([2]; compounds of KD extract): 1.1

- Cross BBB potential ([1]; PAMPA): +
- PAMPA-BBB log Pe (cm s−1) ([1]; PAMPA, 4 h): −5.55 cm s−1
Compound: CC(C)c1cc2c(c(O)c1O)C(=O)C1CCCC(C)(C)C1CC2 (stereo not shown) [Rosmaridiphenol]
- Log P [2, 4]: 5.9

- Cross BBB potential ([1]; PAMPA): ++
- PAMPA-BBB log Pe (cm s−1) ([1]; PAMPA, 4 h): −5.00 cm s−1
Compound: CC(C)C1=Cc2ccc3c(c2C(=O)C1=O)CCCC3(C)C [Rosmariquinone]
- Log P [2, 4]: 4.9
